# Data from patent US10106516B2, “PDE10 inhibitors and related compositions and methods” (Omeros Corporation, priority 2010, dated 2018).
# Biological target: T1, PDE10 (Homo sapiens, UniProt Q9Y233)
# T1 construct: made in house; host or cells: Sf9 insect cells (baculovirus)
# Experiment: PDE10 biochemical assay (two-step Thompson and Appleman method or SPA)
# Details: PDE10 inhibition
# Method: In short, cAMP is spiked with (^3H)cAMP and incubated with PDE10 and various concentrations of a compound of structure (I). After the appropriate incubation time, the reaction is terminated by heating. The mixture is then subjected to treatment with snake venom phosphatase. The phosphatase hydrolyzes any AMP in the mixture, but leaves unreacted cAMP intact. Thus, by separating cAMP from the mixture and determining its concentration (by radiography), the percent of inhibition can be determined. IC50 values can be calculated by performing the experiment at several concentrations using standard graphical means. A detailed description of the actual technique used for IC50 assays as set forth in following Examples.
# The phosphodiesterase (PDE) assay was performed using recombinant human PDE 1A3, 2A3, 3 catalytic region, 4 catalytic region, 5 catalytic region, 7A, 8A, 9A2, 10A1 and 11A1 enzymes expressed in a baculoviral system using Sf9 cells. PDE activity was measured using a modification of the two-step method of Thompson and Appleman described above which was adapted for 96 well plate format. […] The final assay volume was 110 μl with assay buffer (10 mM MgCl2; 40 mM Tris.HCl; pH 7.4). Reactions were initiated with enzyme and incubated with (^3H)-substrate and substance for 20 minutes at 30° C. The reaction was terminated by denaturing the enzyme (heating the reaction to 70° C. for 2 minutes). The reaction was then cooled at 4° C. for 10 minutes before the addition of snake venom (Crotalus atrox, 0.2 mg/ml) for 10 minutes at 30° C., thus allowing non-specific hydrolysis of the tritiated substrate. Separation of the remaining unhydrolysed cyclic nucleotide was achieved by a batch binding of the mixture to activated Dowex (200 μl) anion exchange resin. The anion exchange resin bound the charged nucleotides, leaving only hydrolysed (^3H) substrate in the soluble fraction. The soluble fraction (50 μl) was then added to microscint-20 (200 μl) and counted on a Top Count Plate reader. Radioactivity units were plotted against inhibitor concentration and IC50 values obtained using Graph Pad Prism software.
# Alternatively, phosphodiesterase activity was measured by scintillation proximity assay (SPA) with [^3H]-cGMP as substrate. Purified PDE10 was diluted and stored in 25 mM Tris-Cl (pH 8.0)/100 mM NaCl/0.05% Tween 20/50% glycerol/3 mM DTT. Assays contained (final concentrations): 50 mM Tris-Cl (pH 7.5)/8.3 mM MgCl2/1.7 mM EGTA/0.5 mg/ml BSA/5% DMSO and 2 ng PDE10 in a final volume of 0.1 mL. Inhibition was evaluated at 8 concentrations in duplicate. Reactions were initiated by addition of enzyme and were terminated after 20 minutes at 30° C. by the addition of 50 μl of SPA beads containing Zn^++. The mixture was shaken, allowed to settle for 3 hours, and counted in a Wallac plate counter. Results (net cpm) were fitted to a four parameter logistic model using Excel Solver®.
# T1 sequence (Q9Y233 1-779 isoform Q9Y233-1): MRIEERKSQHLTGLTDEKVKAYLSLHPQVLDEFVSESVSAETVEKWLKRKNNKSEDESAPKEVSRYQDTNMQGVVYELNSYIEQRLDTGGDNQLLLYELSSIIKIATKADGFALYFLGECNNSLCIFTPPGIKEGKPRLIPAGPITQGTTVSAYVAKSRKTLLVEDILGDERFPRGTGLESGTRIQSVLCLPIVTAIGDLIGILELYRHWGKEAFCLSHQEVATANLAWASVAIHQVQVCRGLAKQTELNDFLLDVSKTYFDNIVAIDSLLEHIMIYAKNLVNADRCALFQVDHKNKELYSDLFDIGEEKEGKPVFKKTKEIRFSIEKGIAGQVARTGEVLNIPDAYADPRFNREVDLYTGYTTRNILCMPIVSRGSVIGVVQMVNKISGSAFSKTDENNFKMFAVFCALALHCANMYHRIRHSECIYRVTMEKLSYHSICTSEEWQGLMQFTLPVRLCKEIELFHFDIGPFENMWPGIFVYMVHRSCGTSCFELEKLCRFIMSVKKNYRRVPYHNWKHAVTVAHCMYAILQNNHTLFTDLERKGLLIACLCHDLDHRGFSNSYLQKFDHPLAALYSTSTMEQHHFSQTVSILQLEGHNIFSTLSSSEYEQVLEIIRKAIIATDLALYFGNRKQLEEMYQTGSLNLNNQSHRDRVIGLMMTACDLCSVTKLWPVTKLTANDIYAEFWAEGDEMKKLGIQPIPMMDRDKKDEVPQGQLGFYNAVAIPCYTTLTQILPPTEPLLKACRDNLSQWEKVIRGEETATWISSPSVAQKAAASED
row,Compound,IC50 [nM]
1,"COc1cc(-c2ccc(C(=O)C(OC)c3ccc(-c4nnc(C)o4)cc3)o2)cc(OC)c1Br (stereo not shown) [Compound 13-1, 1-(5-(4-Bromo-3,5-Dimethoxyphenyl)Furan-2-Yl)-2-Methoxy-2-(4-(5-Methyl-1,3,4-Oxadiazol-2-Yl)Phenyl)Ethanone]",≤ 1000
2,"COc1cc(-c2nc(C(=O)C(OC)c3ccc(N4CCOCC4)cc3)no2)cc(OC)c1Br (stereo not shown) [Compound 54-1, 1-(5-(4-Bromo-3,5-Dimethoxyphenyl)-1,2,4-Oxadiazol-3-Yl)-2-Methoxy-2-(4-Morpholinophenyl)Ethanone]",≤ 1000
3,COc1cc(-c2coc(C(=O)C(OC)c3ccc(-n4cncn4)cc3)n2)cc(OC)c1Br (stereo not shown) [Compound 65-2],≤ 1000
4,"COc1cc(-c2ccc(C(=O)C(OC)c3ccc(N4CCOCC4)cc3)o2)cc(OC)c1F (stereo not shown) [Compound 48-1, 1-(5-(4-Fluoro-3,5-Dimethoxyphenyl)Furan-2-Yl)-2-Methoxy-2-(4-Morpholinophenyl)Ethanone]",≤ 1000
5,COc1cc(-c2coc(C(=O)C(OC)c3ccc(OC(F)(F)F)cc3)n2)cc(OC)c1Br (stereo not shown) [Compound 65-3],≤ 1000
6,COc1cc(-c2coc(C(=O)C(OC)c3cccc(N4CCOCC4)c3)n2)cc(OC)c1Br (stereo not shown) [Compound 65-1],≤ 1000
7,"COc1cc(OC)cc(-c2ccc(C(=O)C(OC)c3ccc(N4CCOCC4)cc3)o2)c1 (stereo not shown) [Compound 27-1, 1-(5-(3,5-Dimethoxyphenyl)Furan-2-Yl)-2-Methoxy-2-(4-Morpholinophenyl)Ethanone]",≤ 1000
8,COc1cc(-c2ccc(C(=O)C(OC)c3ccc(-c4nnc(C)s4)cc3)o2)cc(OC)c1OC (stereo not shown) [Compound 65-8],≤ 1000
9,"COc1cc(-c2ccc(C(=O)C(OC)c3ccc(N4CCOCC4)cc3)o2)cc(OC)c1Cl (stereo not shown) [Compound 50-1, 1-(5-(4-Chloro-3,5-Dimethoxyphenyl)Furan-2-Yl)-2-Methoxy-2-(4-Morpholinophenyl)Ethanone]",≤ 1000
10,"COc1cc(-c2ccc(C(=O)C(OC)c3ccc(N4CCOCC4)cc3)o2)cc(OC)c1Br (stereo not shown) [Compound 12-1, 1-(5-(4-Bromo-3,5-Dimethoxyphenyl)Furan-2-Yl)-2-Methoxy-2-(4-Morpholinophenyl)Ethanone]",≤ 1000
11,"COc1cc(-c2ccc(C(=O)C(OC)c3ccc(-c4nnc(C5CC5)o4)cc3)o2)cc(OC)c1Br (stereo not shown) [Compound 22-1, 1-(5-(4-Bromo-3,5-Dimethoxyphenyl)Furan-2-Yl)-2-(4-(5-Cyclopropyl-1,3,4-Oxadiazol-2-Yl)Phenyl)-2-Methoxyethanone]",≤ 1000
12,"COc1cc(-c2ccc(C(=O)C(OC)c3ccc(-c4nnc(C)o4)cc3)o2)cc(OC)c1F (stereo not shown) [Compound 62-1, 1-(5-(4-Fluoro-3,5-Dimethoxyphenyl)Furan-2-Yl)-2-Methoxy-2-(4-(5-Methyl-1,3,4-Oxadiazol-2-Yl)Phenyl)Ethanone]",≤ 1000
13,"COc1cc(-c2ccc(C(=O)C(OC)c3ccc(CN(C)C)cc3)o2)cc(OC)c1Br (stereo not shown) [Compound 43-1, 1-(5-(4-Bromo-3,5-Dimethoxyphenyl)Furan-2-Yl)-2-(4-((Dimethylamino)Methyl)Phenyl)-2-Methoxyethanone]",≤ 1000
14,COc1cc(-c2ccc(C(=O)C(OC)c3ccc(-c4nnc(C)o4)cc3)o2)cc(OC)c1O (stereo not shown) [Compound 65-15],≤ 1000
15,"COc1cc(-c2ccc(C(=O)C(OC)c3ccc(-c4nnc(C)o4)cc3)o2)cc(Br)c1OC (stereo not shown) [Compound 39-1, 1-(5-(3-Bromo-4,5-Dimethoxyphenyl)Furan-2-Yl)-2-Methoxy-2-(4-(5-Methyl-1,3,4-Oxadiazol-2-Yl)Phenyl)Ethanone]",≤ 1000
16,"COc1cc(-c2ccn(C(=O)C(OC)c3ccc(N4CCOCC4)cc3)n2)cc(OC)c1Br (stereo not shown) [Compound 52-1, 1-(3-(4-Bromo-3,5-Dimethoxyphenyl)-1H-Pyrazol-1-Yl)-2-Methoxy-2-(4-Morpholinophenyl)Ethanone]",≤ 1000
17,"COc1cc(-c2coc(C(=O)C(OC)c3ccc(OC(C)C)cc3)n2)cc(OC)c1Br (stereo not shown) [Compound 8-1, 1-(4-(4-Bromo-3,5-Dimethoxyphenyl)Oxazol-2-Yl)-2-(4-Isopropoxyphenyl)-2-Methoxyethanone]",≤ 1000

row,Compound,IC50 [nM]
1,COc1cc(-c2coc(C(=O)C(OC)c3ccc(-n4nccn4)cc3)n2)cc(OC)c1Br (stereo not shown) [Compound 65-5],≤ 1000
2,"COc1cc(-c2coc(C(=O)C(OC)c3ccc(N4CCCCC4)cc3)n2)cc(OC)c1Br (stereo not shown) [Compound 6-1, 1-(4-(4-Bromo-3,5-Dimethoxyphenyl)Oxazol-2-Yl)-2-Methoxy-2-(4-(Piperidin-1-Yl)Phenyl)Ethanone]",≤ 1000
3,"CCOC(C(=O)c1ccc(-c2cc(OC)c(Cl)c(OC)c2)o1)c1ccc(N2CCOCC2)cc1 (stereo not shown) [Compound 64-1, 1-(5-(4-Chloro-3,5-Dimethoxyphenyl)Furan-2-Yl)-2-Ethoxy-2-(4-Morpholinophenyl)Ethanone]",≤ 1000
4,CCOC(C(=O)c1ccc(-c2cc(OC)c(Br)c(OC)c2)o1)c1ccc(-c2nnc(C)s2)cc1 (stereo not shown) [Compound 65-11],≤ 1000
5,"CCOc1c(OC)cc(-c2ccc(C(=O)C(OC)c3ccc(N4CCOCC4)cc3)o2)cc1OC (stereo not shown) [Compound 29-1, 1-(5-(4-Ethoxy-3,5-Dimethoxyphenyl)Furan-2-Yl)-2-Methoxy-2-(4-Morpholinophenyl)Ethanone]",≤ 1000
6,"COc1cc(-c2ccc(C(=O)C(OC)c3ccc(-c4nnc(C)o4)cc3)s2)cc(OC)c1Br (stereo not shown) [Compound 57-1, 1-(5-(4-Bromo-3,5-Dimethoxyphenyl)Thiophen-2-Yl)-2-Methoxy-2-(4-(5-Methyl-1,3,4-Oxadiazol-2-Yl)Phenyl)Ethanone]",≤ 1000
7,"COc1cc(-c2coc(C(=O)C(OC)c3ccc(-n4cccn4)cc3)n2)cc(OC)c1Br (stereo not shown) [Compound 5-1, 2-(4-(1H-Pyrazol-1-Yl)Phenyl)-1-(4-(4-Bromo-3,5-Dimethoxyphenyl)Oxazol-2-Yl)-2-Methoxyethanone]",≤ 1000
8,"COc1cc(-c2ccc(C(=O)C(OC)c3ccc(-c4csc(C)n4)cc3)o2)cc(OC)c1Br (stereo not shown) [Compound 35-1, 1-(5-(4-Bromo-3,5-Dimethoxyphenyl)Furan-2-Yl)-2-Methoxy-2-(4-(2-Methylthiazol-4-Yl)Phenyl)Ethanone]",≤ 1000
9,"COc1cc(-c2ccc(C(=O)C(OC)c3ccc(N4CCOCC4)cc3)o2)cc(OC)c1OC(F)F (stereo not shown) [Compound 28-1, 1-(5-(4-(Difluoromethoxy)-3,5-Dimethoxyphenyl)Furan-2-Yl)-2-Methoxy-2-(4-Morpholinophenyl)Ethanone]",≤ 1000
10,COc1cc(-c2coc(C(=O)C(OC)c3ccc(-n4cc(C)cn4)cc3)n2)cc(OC)c1Br (stereo not shown) [Compound 65-6],≤ 1000
11,"COc1cc(-c2ccc(C(=O)C(OC)c3ccc(-c4nnc(C)o4)cc3)o2)cc(Cl)c1OC (stereo not shown) [Compound 40-1, 1-(5-(3-Chloro-4,5-Dimethoxyphenyl)Furan-2-Yl)-2-Methoxy-2-(4-(5-Methyl-1,3,4-Oxadiazol-2-Yl)Phenyl)Ethanone]",≤ 1000
12,"CCc1nnc(-c2ccc(C(OC)C(=O)c3ccc(-c4cc(OC)c(Br)c(OC)c4)o3)cc2)o1 (stereo not shown) [Compound 18-1, 1-(5-(4-Bromo-3,5-Dimethoxyphenyl)Furan-2-Yl)-2-(4-(5-Ethyl-1,3,4-Oxadiazol-2-Yl)Phenyl)-2-Methoxyethanone]",≤ 1000
13,"COc1cc(-c2ccc(C(=O)C(OC)c3ccc(-c4nnn(C)n4)cc3)o2)cc(OC)c1Br (stereo not shown) [Compound 33-1, 1-(5-(4-Bromo-3,5-Dimethoxyphenyl)Furan-2-Yl)-2-Methoxy-2-(4-(2-Methyl-2H-Tetrazol-5-Yl)Phenyl)Ethanone]",≤ 1000
14,"COc1ccc(C(OC)C(=O)c2ccc(-c3cc(OC)c(Br)c(OC)c3)o2)cn1 (stereo not shown) [Compound 42-1, 1-(5-(4-Bromo-3,5-Dimethoxyphenyl)Furan-2-Yl)-2-Methoxy-2-(6-Methoxypyridin-3-Yl)Ethanone]",≤ 1000
15,COc1cc(-c2ccc(C(=O)C(OC)c3ccc(-c4nnc(C)o4)cc3)o2)cc(OC)c1C#N (stereo not shown) [Compound 65-12],≤ 1000
16,"COc1cc(-c2ccc(C(=O)C(OC)c3ccc(N4CCOCC4)nc3)o2)cc(OC)c1Br (stereo not shown) [Compound 44-1, 1-(5-(4-Bromo-3,5-Dimethoxyphenyl)Furan-2-Yl)-2-Methoxy-2-(6-Morpholinopyridin-3-Yl)Ethanone]",≤ 1000
17,"COc1cc(-c2ccc(C(=O)C(OC)c3ccc(-c4cnccn4)cc3)o2)cc(OC)c1Br (stereo not shown) [Compound 45-1, 1-(5-(4-Bromo-3,5-Dimethoxyphenyl)Furan-2-Yl)-2-Methoxy-2-(4-(Pyrazin-2-Yl)Phenyl)Ethanone]",≤ 1000
